{"source": "patent US10562898B2", "about": "“Substituted benzenesulfonamides as inhibitors of alpha-4 beta-7 integrin activity” (EA PHARMA CO., LTD., priority 2016, dated 2020)", "data": [{"molecular_target": "T1, α4β7 integrin (Homo sapiens, UniProt P13612+P26010)", "T1 construct": "a cell line RPMI-8866, which is known to express α4β7 integrin; endogenous in cells; host or cells: RPMI-8866 (human B cell line)", "T1 sequence (P13612 34-1032)": "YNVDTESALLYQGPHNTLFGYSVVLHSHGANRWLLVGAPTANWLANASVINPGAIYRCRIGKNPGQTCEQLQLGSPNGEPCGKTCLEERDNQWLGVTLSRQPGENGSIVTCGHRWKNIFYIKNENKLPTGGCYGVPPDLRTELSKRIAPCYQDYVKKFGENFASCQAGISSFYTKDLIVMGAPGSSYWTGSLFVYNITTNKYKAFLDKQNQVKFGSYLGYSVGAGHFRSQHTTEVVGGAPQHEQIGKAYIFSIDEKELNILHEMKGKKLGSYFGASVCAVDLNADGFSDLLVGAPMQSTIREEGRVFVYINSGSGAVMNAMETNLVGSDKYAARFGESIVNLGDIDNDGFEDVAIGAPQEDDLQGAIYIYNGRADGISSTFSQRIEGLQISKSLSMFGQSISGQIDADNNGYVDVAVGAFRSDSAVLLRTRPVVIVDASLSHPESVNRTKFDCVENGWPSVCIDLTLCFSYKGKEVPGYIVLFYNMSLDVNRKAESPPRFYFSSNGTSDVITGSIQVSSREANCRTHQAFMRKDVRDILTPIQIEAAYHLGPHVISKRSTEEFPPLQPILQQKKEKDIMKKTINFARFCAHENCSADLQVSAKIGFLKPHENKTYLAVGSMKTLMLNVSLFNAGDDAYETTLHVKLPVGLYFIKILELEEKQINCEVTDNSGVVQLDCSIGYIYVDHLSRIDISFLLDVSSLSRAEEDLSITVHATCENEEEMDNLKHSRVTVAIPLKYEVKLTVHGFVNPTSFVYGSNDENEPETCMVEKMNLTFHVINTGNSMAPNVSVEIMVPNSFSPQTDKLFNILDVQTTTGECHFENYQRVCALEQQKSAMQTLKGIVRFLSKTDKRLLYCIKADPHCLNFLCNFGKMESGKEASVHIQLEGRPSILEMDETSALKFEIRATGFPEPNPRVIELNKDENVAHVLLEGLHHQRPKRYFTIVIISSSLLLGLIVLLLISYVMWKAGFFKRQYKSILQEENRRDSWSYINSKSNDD", "T1 sequence (P26010 20-798)": "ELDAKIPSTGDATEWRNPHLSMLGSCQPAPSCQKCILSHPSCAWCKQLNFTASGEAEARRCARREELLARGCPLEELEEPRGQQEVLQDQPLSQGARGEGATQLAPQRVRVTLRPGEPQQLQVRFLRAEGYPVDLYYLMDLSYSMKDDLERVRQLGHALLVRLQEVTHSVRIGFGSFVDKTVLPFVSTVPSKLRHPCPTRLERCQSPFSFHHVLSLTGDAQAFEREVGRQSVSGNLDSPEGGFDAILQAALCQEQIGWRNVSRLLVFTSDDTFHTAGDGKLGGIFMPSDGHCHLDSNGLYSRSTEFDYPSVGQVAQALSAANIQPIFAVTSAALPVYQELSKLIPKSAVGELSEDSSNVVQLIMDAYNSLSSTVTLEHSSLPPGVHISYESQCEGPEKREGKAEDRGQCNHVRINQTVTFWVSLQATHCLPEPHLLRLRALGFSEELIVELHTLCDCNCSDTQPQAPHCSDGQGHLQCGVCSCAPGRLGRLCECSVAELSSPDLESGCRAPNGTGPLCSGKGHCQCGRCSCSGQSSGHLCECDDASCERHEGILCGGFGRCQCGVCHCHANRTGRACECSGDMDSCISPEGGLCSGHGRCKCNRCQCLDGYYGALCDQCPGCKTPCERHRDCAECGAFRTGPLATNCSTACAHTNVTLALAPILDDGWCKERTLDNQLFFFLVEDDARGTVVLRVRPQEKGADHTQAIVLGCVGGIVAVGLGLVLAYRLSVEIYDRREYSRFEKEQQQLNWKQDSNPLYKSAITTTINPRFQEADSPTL", "test": "MAdCAM-1/α4β7 integrin binding inhibitory activity evaluation test (RPMI-8866 cells binding to MAdCAM-1/Fc)", "type": "cell-based", "details": "recombinant mouse MAdCAM-1/Fc, no serum", "protocol": "(2) MAdCAM-1/α4β7 Integrin Binding Inhibitory Activity Evaluation Test\nEach test substance was measured in terms of an ability to inhibit the MAdCAM-1 binding of a human B cell line, namely, a cell line RPMI-8866, which is known to express α4β7 integrin.\nA solution of recombinant mouse MAdCAM-1/Fc (R&D Systems, Inc.) (0.75 μg/mL) diluted with a buffer A (carbonate buffer, pH 9.6) was added in an amount of 50 μL/well to a 96-well microtiter plate, followed by incubation at 4° C. overnight. After the plate was washed with PBS once, 150 μL/well of Block Ace (Snow Brand Milk Products Co., Ltd.) was added, followed by incubation at room temperature for 2 hours. After removal, the plate was washed with PBS once.\nThen, 100 μL of the RPMI-8866 cells (2×10^6 cells/mL) and 100 μL of the test substance at each of various concentrations diluted with a binding buffer (DMEM containing 40 mM HEPES, 0.2% BSA, and 4 mM MnCl2) were added on the plate coated with the MAdCAM-1/Fc (5×10^5 cells/well), followed by incubation at 30° C. for 15 to 60 minutes. After the cells were bound to the wells, the plate was washed with PBS to remove unbound cells. A buffer C (PBS containing 1.5% Triton X-100) in an amount 50 μL/well was added to the plate to lyse the bound RPMI-8866 cells. After 30 μL of a substrate buffer (Promega, CytoTox 96 Non-Radioactive Cytotoxicity Assay) was added to 30 μL of the cell lysate, a reaction was allowed to proceed at room temperature in the dark for 30 minutes. After 30 μL of a stop solution (Promega, CytoTox 96 Non-Radioactive Cytotoxicity Assay) was added to each, and then an absorbance at 490 nm was measured using a plate reader. The absorbance obtained here represents a detection result of an activity of lactate dehydrogenase (LDH) eluted in the supernatant of each well, that is, the absorbance is proportional to the number of RPMI-8866 cells bound to the MAdCAM-1 and thus remaining on the plate. The test was performed in duplicate. Provided that the absorbance of the well containing no test substance was 100%, a cell binding rate with the test substance at each of the various concentrations was figured out, and a concentration IC50 which brought about 50% binding inhibition was calculated.", "units": {"IC50": "nM"}, "values": [{"smiles": "CCC(CC)C(=O)Nc1ccc(S(=O)(=O)Nc2cc(F)c(C(=O)N[C@@H](Cc3ccc(-n4c(=O)c5ccncc5n(C)c4=O)cc3)C(=O)O)cc2F)cc1", "note": "[Compound A3]", "IC50": 0.72}, {"smiles": "Cc1cn(C)c(=O)n(-c2ccc(C[C@H](NC(=O)c3cc(F)c(NS(=O)(=O)c4ccc(NC(=O)C(C)C)cc4)cc3F)C(=O)O)cn2)c1=O", "note": "[Compound A71]", "IC50": 3.2}, {"smiles": "Cc1cn(C)c(=O)n(-c2ccc(C[C@H](NC(=O)c3cc(F)c(NS(=O)(=O)c4ccc(NC(=O)C(C)(C)C)cc4)cc3F)C(=O)O)nc2)c1=O", "note": "[Compound A69]", "IC50": 1.8}, {"smiles": "Cn1c2c(c(=O)n(-c3ccc(C[C@H](NC(=O)c4cc(F)c(NS(=O)(=O)c5ccc(NC(=O)C(C)(C)C)cc5)cc4F)C(=O)O)cc3)c1=O)CCOC2", "note": "[Compound A27]", "IC50": 0.36}, {"smiles": "Cc1c(C)n(C)c(=O)n(-c2ccc(C[C@H](NC(=O)c3cc(F)c(NS(=O)(=O)c4ccc(NC(=O)C(C)(C)C)cn4)cc3F)C(=O)O)cn2)c1=O", "note": "[Compound A32]", "IC50": 0.62}, {"smiles": "Cc1cc(=O)n(-c2ccc(C[C@H](NC(=O)c3cc(F)c(NS(=O)(=O)c4ccc(NC(=O)C(C)(C)C)cc4)cc3F)C(=O)O)cc2)c(=O)n1C", "note": "[Compound A46]", "IC50": 0.76}, {"smiles": "Cn1ccc(=O)n(-c2ccc(C[C@H](NC(=O)c3cc(F)c(NS(=O)(=O)c4ccc(NC(=O)C(C)(C)CO)cc4)cc3F)C(=O)O)cn2)c1=O", "note": "[Compound A62]", "IC50": 4.9}, {"smiles": "Cn1c(C(F)(F)F)cc(=O)n(-c2ccc(C[C@H](NC(=O)c3cc(F)c(NS(=O)(=O)c4ccc(NC(=O)C(C)(C)C)cc4)cc3F)C(=O)O)cn2)c1=O", "note": "[Compound A66]", "IC50": 3.3}, {"smiles": "Cc1c(C)n(C)c(=O)n(-c2ccc(C[C@H](NC(=O)c3cc(F)c(NS(=O)(=O)c4ccc(NC(=O)C5(c6ccccc6)CC5)cc4)cc3F)C(=O)O)cc2)c1=O", "note": "[Compound A30]", "IC50": 0.57}, {"smiles": "Cc1c(C)n(C)c(=O)n(-c2ccc(C[C@H](NC(=O)c3cc(F)c(NS(=O)(=O)c4cccc(NC(=O)C(C)(C)C)c4)cc3F)C(=O)O)cc2)c1=O", "note": "[Compound A49]", "IC50": 2.9}, {"smiles": "Cn1cc(C(F)(F)F)c(=O)n(-c2ccc(C[C@H](NC(=O)c3cc(F)c(NS(=O)(=O)c4ccc(NC(=O)C(C)(C)C)cc4)cc3F)C(=O)O)cn2)c1=O", "note": "[Compound A67]", "IC50": 1.9}, {"smiles": "Cn1c2c(c(=O)n(-c3ccc(C[C@H](NC(=O)c4cc(F)c(NS(=O)(=O)c5ccc(NC(=O)C(C)(C)C)cc5)cc4F)C(=O)O)nc3)c1=O)CCCC2", "note": "[Compound A47]", "IC50": 0.74}, {"smiles": "Cc1cn(C)c(=O)n(-c2ccc(C[C@H](NC(=O)c3cc(F)c(NS(=O)(=O)c4ccc(NC(=O)C(C)(C)C)cc4)cc3F)C(=O)O)cc2)c1=O", "note": "[Compound A37]", "IC50": 1.1}, {"smiles": "COC1(C(=O)Nc2ccc(S(=O)(=O)Nc3cc(F)c(C(=O)N[C@@H](Cc4ccc(-n5c(=O)c(C)c(C)n(C)c5=O)cc4)C(=O)O)cc3F)cc2)CC1", "note": "[Compound A17]", "IC50": 0.55}, {"smiles": "Cc1c(C)n(C)c(=O)n(-c2ccc(C[C@H](NC(=O)c3cc(F)c(NS(=O)(=O)c4ccc(NC(=O)C5(O)CC5)cc4)cc3F)C(=O)O)cc2)c1=O", "note": "[Compound A22]", "IC50": 0.98}, {"smiles": "Cn1c(=O)n(-c2ccc(C[C@H](NC(=O)c3cc(F)c(NS(=O)(=O)c4ccc(NC(=O)C(C)(C)C)c(F)c4)cc3F)C(=O)O)cc2)c(=O)c2ccncc21", "note": "[Compound A12]", "IC50": 0.45}, {"smiles": "Cc1cn(C)c(=O)n(-c2ccc(C[C@H](NC(=O)c3cc(F)c(NS(=O)(=O)c4ccc(NC(=O)C5(C#N)CC5)cc4)cc3F)C(=O)O)cn2)c1=O", "note": "[Compound A60]", "IC50": 2.3}, {"smiles": "CN1CCC(=O)N(c2ccc(C[C@H](NC(=O)c3cc(F)c(NS(=O)(=O)c4ccc(NC(=O)C(C)(C)C)cc4)cc3F)C(=O)O)cn2)C1=O", "note": "[Compound A75, (2S)-2-[2,5-difluoro-4-[(4-pivalamidophenyl)sulfonamide]benzamido]-3-[6-(3-methyl-2,6-dioxotetrahydropyrimidin-1(2H)-yl)pyridin-3-yl]propanoic acid]", "IC50": 4}, {"smiles": "Cc1cn(C)c(=O)n(-c2ccc(C[C@H](NC(=O)c3cc(F)c(NS(=O)(=O)c4ccc(NC(=O)C5(C(F)(F)F)CC5)cc4)cc3F)C(=O)O)cn2)c1=O", "note": "[Compound A56]", "IC50": 1.2}, {"smiles": "CCC(CC)C(=O)Nc1ccc(S(=O)(=O)Nc2cc(F)c(C(=O)N[C@@H](Cc3ccc(-n4c(=O)ccn(C)c4=O)nc3)C(=O)O)cc2F)cc1", "note": "[Compound A61]", "IC50": 6.9}]}]}
